In ChEMBL document CHEMBL1201862, “PubChem BioAssay data set” (2004):
Active and inactive are the calls of the source.

What was measured:
Nonstructural protein 1 = Nonstructural protein 1 (Influenza A virus, UniProt Q194T2); format: functional, Influenza A virus (A/California/07/2009(H1N1))
Leucine aminopeptidase = target: T1, Leucine aminopeptidase (Plasmodium falciparum 3D7, UniProt Q8IL11); test: P. falciparum M17LAP inhibitors, primary screen, biochemical, fluorogenic H-Leu-NHMec substrate, 1536-well (AID 1619); format: functional
T1 sequence (Q8IL11 whole entry): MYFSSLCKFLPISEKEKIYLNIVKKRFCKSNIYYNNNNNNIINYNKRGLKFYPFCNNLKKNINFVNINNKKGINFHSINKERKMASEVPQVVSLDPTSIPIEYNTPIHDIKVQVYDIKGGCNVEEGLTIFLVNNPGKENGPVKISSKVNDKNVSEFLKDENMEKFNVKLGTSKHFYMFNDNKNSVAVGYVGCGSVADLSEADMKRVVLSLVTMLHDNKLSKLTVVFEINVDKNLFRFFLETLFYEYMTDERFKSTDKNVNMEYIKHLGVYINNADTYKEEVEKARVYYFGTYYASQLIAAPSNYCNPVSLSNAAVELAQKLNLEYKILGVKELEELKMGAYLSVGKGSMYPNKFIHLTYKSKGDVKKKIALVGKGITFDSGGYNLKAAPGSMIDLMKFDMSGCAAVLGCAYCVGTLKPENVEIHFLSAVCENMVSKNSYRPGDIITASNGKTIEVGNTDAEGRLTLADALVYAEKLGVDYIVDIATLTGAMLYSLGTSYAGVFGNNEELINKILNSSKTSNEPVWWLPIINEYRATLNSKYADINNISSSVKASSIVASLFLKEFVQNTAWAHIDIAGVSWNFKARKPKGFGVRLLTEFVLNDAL

[1] = viability of uninfected HEp-2 cells – cell-based, HTS, cytotoxicity control for RSV inhibitor project, dose response (AID 2410); format: functional; conditions: human respiratory syncytial virus
[2] = target: T2, Voltage-gated N-type calcium channel alpha-1B subunit/Amyloid beta A4 precursor protein-binding family A member 1 (Homo sapiens, UniProt Q00975+Q02410); format: protein assay
T2 sequence (Q00975 whole entry): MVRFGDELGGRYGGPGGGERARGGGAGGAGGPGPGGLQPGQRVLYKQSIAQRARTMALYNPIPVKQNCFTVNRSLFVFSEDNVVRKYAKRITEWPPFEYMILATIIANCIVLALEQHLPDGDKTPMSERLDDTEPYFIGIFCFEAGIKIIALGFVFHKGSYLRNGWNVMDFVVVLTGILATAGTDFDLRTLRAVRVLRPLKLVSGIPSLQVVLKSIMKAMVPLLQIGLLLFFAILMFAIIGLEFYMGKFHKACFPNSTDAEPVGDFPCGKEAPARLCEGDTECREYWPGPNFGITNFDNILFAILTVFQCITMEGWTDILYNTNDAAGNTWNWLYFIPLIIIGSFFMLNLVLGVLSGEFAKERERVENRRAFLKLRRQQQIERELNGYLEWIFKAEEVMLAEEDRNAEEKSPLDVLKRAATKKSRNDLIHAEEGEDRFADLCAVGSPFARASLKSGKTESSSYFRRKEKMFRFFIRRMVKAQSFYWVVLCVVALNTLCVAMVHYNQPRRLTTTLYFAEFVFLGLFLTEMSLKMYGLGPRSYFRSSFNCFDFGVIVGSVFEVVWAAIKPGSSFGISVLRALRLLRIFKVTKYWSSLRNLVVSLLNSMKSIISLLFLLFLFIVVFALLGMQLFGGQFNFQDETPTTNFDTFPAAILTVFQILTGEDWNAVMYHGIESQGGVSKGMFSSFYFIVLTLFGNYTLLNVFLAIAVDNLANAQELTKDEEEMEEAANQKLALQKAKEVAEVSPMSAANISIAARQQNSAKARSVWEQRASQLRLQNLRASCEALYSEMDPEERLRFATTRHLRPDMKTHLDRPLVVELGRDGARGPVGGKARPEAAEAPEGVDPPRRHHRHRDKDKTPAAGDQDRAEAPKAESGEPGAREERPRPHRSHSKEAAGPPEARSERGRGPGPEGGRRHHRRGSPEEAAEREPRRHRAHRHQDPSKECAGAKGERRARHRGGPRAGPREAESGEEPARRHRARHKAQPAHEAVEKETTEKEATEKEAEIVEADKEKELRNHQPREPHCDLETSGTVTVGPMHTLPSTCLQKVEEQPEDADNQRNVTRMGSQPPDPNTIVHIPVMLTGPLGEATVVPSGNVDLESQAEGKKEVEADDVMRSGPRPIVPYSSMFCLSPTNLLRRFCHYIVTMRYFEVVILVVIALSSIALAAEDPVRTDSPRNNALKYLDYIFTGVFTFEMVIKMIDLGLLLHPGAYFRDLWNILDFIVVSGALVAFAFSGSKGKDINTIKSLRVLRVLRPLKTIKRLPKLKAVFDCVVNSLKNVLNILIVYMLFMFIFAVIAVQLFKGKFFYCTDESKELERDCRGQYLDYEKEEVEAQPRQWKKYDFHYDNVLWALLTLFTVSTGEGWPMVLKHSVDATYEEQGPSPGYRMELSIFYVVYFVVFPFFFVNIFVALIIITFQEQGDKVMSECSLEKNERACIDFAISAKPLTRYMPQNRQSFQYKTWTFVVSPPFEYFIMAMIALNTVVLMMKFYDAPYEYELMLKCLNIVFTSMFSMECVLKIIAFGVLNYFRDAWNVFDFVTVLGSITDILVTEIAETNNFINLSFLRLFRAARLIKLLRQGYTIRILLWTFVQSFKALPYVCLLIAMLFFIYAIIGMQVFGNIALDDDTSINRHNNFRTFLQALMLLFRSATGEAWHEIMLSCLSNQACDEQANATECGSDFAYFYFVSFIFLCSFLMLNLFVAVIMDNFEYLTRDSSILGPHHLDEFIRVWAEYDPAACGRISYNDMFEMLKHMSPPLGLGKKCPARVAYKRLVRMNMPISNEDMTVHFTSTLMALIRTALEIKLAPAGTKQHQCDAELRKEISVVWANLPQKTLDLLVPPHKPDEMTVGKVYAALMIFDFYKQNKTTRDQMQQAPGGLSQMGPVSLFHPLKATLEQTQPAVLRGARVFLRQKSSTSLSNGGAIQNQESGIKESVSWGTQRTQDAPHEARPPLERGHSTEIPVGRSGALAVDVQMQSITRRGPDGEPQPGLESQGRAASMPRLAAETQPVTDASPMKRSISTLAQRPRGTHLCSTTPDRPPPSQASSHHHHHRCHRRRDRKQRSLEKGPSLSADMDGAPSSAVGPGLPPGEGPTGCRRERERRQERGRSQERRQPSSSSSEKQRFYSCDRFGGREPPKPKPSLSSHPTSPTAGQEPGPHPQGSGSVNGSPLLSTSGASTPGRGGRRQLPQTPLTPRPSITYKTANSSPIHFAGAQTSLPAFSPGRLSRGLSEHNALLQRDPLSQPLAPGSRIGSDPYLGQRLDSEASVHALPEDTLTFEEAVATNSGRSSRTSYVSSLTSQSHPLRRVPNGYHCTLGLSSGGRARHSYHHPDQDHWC
T2 sequence (Q02410 whole entry): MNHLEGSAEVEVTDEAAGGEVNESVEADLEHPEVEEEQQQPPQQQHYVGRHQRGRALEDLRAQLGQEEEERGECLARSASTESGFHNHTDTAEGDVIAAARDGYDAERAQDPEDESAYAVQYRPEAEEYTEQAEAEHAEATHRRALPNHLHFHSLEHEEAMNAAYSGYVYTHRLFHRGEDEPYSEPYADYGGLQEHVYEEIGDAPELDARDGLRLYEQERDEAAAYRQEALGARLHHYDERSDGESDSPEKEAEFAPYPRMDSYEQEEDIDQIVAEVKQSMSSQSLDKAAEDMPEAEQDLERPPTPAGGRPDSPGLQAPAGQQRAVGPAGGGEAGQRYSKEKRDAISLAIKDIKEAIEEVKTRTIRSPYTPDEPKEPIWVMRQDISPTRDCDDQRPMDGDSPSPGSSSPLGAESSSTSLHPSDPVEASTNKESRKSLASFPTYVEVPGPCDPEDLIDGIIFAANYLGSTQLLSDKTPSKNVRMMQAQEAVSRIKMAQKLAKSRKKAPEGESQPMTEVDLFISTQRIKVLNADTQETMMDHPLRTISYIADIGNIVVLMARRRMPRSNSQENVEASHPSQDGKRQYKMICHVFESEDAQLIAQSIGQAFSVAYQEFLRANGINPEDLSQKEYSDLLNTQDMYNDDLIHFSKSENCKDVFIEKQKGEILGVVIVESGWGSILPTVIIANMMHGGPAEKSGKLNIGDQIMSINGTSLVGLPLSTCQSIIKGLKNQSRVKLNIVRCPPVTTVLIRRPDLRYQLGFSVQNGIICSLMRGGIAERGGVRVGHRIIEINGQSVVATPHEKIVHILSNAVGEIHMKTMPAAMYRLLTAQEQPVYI

[3] = target: T2, Voltage-gated N-type calcium channel alpha-1B subunit/Amyloid beta A4 precursor protein-binding family A member 1; format: protein assay; remark: listed apart in the source
[4] = target: Peroxisome proliferator-activated receptor gamma/Nuclear receptor coactivator 1 (Homo sapiens, UniProt P37231); test: (§1) TR-FRET dose response biochemical High Throughput Screening assay for agonists of the steroid receptor coactivator 1 (SRC-1) recruitment by the peroxisome proliferator-activated receptor gamma (PPAR gamma): non-selective agonists. [Related pubchem assays (depositor defined):AID1300, AID1808, AID504735, AID631]; format: protein assay
[5] = target: Peroxisome proliferator-activated receptor gamma/Nuclear receptor coactivator 3 (Homo sapiens, UniProt P37231); test: as §1, with “3 (SRC-3)” for “1 (SRC-1)”, “assays: 1301 (Confirmation screen.), 1048 (Primary screen.)]” for “assays (depositor defined):AID1300, AID1808, AID504735, AID631]”; format: functional
[6] = target: Peroxisome proliferator-activated receptor gamma/Nuclear receptor coactivator 2 (Homo sapiens, UniProt P37231); test: TR-FRET dose response biochemical High Throughput Screening assay for agonists of the steroid receptor coactivator 2 (SRC-2) recruitment by the peroxisome proliferator-activated receptor gamma (PPAR gamma): non-selective agonists. [Related pubchem assays: 1297, 1032 ]; format: functional
[7] = viability of HCT116 lacking mutant beta-catenin – cell-based, human colon tumor, dose response (AID 1045); format: functional;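 also: HCT116 colon tumor cells with beta catenin knocked out; cells exposed to compound for 60 hours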
[8] = THP-1 cell cytotoxicity, dose response, cytotoxicity control for non-replicating M. tuberculosis project (AID 489025); format: functional
Protein RecA = target: T3, Protein RecA (Mycobacterium tuberculosis, UniProt P9WHJ3); test: Fluorescence Cell-Free Homogeneous Dose Retest to Identify Inhibitors of RecA-Intein Splicing Activity. [Related pubchem assays (depositor defined):AID2097, AID2223, AID489010, AID492950]; format: functional
T3 sequence (P9WHJ3 whole entry): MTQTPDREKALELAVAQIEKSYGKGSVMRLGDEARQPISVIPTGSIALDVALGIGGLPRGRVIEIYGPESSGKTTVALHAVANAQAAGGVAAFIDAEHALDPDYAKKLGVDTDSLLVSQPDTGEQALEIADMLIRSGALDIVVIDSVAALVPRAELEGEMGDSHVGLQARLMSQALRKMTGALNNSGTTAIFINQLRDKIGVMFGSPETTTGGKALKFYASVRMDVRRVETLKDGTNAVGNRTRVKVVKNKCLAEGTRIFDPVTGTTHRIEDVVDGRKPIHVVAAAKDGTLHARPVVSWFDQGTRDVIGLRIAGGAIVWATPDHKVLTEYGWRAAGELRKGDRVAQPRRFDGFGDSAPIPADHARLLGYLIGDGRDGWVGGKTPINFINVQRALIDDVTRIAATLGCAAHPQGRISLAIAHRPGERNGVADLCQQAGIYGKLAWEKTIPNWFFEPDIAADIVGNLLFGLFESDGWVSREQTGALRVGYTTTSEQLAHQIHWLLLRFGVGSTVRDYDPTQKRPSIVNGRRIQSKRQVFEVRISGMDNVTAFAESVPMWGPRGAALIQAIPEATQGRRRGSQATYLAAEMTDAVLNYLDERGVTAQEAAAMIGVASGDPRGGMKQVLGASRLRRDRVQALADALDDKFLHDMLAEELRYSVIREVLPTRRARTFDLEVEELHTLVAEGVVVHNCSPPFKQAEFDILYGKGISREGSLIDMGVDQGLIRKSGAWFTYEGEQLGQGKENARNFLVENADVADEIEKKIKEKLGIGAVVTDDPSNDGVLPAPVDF

cells = format: functional
[9] = viability of PTEN-deleted HCT116 cells – cell-based, HCT116 PTEN knockout, dose response (AID 1047); format: functional;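 also: HCT116 colon tumor cells with PTEN knocked out; cells exposed to compound for 60 hours before readout; potency for loss of cell viability measured by luminescence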
[10] = target: T4, Replicative DNA helicase DnaB (Mycobacterium tuberculosis, UniProt P9WMR3); test: DnaB intein splicing inhibitors, dose response, biochemical, cell-free fluorescence (AID 449749); format: functional
T4 sequence (P9WMR3 whole entry): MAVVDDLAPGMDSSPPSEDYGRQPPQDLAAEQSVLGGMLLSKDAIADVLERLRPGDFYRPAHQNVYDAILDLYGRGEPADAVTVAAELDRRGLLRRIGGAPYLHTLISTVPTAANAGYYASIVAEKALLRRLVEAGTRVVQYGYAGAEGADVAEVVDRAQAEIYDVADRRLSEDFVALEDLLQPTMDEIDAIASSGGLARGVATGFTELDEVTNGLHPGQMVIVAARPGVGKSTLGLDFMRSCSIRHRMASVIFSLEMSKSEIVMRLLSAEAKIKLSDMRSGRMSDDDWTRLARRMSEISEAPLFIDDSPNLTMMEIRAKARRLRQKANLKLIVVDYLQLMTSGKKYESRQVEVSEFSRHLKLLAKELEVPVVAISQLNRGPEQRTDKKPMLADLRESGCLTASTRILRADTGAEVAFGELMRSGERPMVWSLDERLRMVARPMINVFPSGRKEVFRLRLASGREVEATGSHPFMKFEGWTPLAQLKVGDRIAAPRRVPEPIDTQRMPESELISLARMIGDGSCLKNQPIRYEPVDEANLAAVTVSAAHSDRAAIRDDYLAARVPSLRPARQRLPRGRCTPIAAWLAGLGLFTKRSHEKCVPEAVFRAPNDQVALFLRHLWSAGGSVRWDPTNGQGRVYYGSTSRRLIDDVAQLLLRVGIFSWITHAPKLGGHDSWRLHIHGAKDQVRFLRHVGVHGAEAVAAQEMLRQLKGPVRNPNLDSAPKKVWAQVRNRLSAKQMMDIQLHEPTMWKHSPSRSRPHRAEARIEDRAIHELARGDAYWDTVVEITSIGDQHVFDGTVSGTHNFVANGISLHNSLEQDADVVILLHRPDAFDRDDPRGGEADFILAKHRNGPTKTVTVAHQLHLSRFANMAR

[11] = target: T5, High affinity choline transporter 1 (Homo sapiens, UniProt Q9GZV3); test: human choline transporter blockers, potency – cell-based, 5-point CRC, membrane potential dye, dose response (AID 504840); format: functional
T5 sequence (Q9GZV3 whole entry): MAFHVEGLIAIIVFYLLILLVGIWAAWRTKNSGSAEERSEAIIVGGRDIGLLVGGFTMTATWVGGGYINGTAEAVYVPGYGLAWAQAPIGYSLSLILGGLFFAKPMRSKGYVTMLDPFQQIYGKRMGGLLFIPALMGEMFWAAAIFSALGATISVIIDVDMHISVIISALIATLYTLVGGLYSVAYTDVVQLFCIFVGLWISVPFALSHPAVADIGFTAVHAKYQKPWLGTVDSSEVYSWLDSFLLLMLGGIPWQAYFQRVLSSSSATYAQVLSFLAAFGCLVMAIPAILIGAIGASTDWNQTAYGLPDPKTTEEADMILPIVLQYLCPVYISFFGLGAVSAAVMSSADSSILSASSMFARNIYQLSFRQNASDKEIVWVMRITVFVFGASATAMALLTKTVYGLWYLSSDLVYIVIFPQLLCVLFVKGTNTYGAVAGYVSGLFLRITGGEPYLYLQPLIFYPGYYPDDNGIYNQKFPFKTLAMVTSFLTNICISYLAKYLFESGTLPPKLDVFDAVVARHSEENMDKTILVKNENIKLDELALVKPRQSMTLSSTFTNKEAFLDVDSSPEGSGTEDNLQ

H9c2 = test: cells; format: functional, cell-based; conditions: Rattus norvegicus, H9c2, Myocardium;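 also: confirmatory concentration-response retest of ultra-high-throughput screening hits for modulation of myocardial damage; cell death induced by hydrogen peroxide oxidative stress; compound pretreatment for 60 min then peroxide exposure for 2 h; potency is for protecting the cells against peroxide damage rather than for killing them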

Chain of Nonstructural protein 1 (Q194T2 whole entry): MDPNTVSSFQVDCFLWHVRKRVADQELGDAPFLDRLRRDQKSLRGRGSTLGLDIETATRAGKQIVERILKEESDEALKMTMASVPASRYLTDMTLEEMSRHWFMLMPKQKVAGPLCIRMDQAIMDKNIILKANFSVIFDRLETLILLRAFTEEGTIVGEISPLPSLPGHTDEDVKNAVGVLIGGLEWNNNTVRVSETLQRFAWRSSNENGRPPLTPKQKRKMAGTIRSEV

Cc1ccc(S(=O)(=O)/N=C2\C(=O)c3ccccc3C(O)=C2N2CCN(c3ccccc3F)CC2)cc1
IC50 (Nonstructural protein 1): 79.2 µM (active)

O=C(O)CSc1nnc(CNc2cccc(C(F)(F)F)c2)n1Cc1ccco1
IC50 (Leucine aminopeptidase): 48.8 µM (active)

Clc1cc(Cl)cc(Nc2nc[nH]n2)c1
CC50 [1]: 22.7 µM (active) | IC50 (Leucine aminopeptidase): 23.3 µM (active)

CCOC(=O)C1CSC(CC(=O)Nc2ccc(OCC)cc2)C(=O)N1 (configuration not stated)
IC50 (Leucine aminopeptidase): 11.4 µM (active)

CCN(C(=O)CN1C(=O)S/C(=C\C=C\c2ccccc2)C1=O)C1CCS(=O)(=O)C1 (configuration not stated)
IC50 [2]: > 50 µM (inactive) | IC50 [3]: > 56.8 µM (not active)

CCCCNC(=O)CSc1cc(=O)n(C)c2ccccc12
EC50 [4]: > 79.4 µM (inactive) | EC50 [5]: > 79.4 µM (not active) | EC50 [6]: > 79.4 µM (not active)

CC(=O)OCCNc1cc(SCc2ccco2)c2nonc2c1[N+](=O)[O-]
EC50 [7]: 17.6 µM (active) | CC50 [8]: 30.1 µM (active) | EC50 (Protein RecA): 2.73 µM (active) | IC50 (cells): 5.86 µM (active) | EC50 [9]: 23.7 µM (active) | AC50 [10]: 8.4 µM (active)

Cc1ccc(NC(S)=Nc2ccc3nc(-c4ccccn4)c(-c4ccccn4)nc3c2)cc1C
IC50 [11]: 13.2 µM (active)

CCCn1c2ccccc2c2cnn(CC(=O)OC)c(=O)c21
IC50 [11]: 15.8 µM (active)

C=CCN1C=C/C(=C\C=C(C#N)C#N)c2ccccc21
IC50 (Nonstructural protein 1): 14.2 µM (active)

Fc1ccccc1CCNc1c2c(nc3ncnn13)CCCC2
IC50 [11]: 13.8 µM (active)

COc1ccccc1OCC(=O)N/N=C/c1cccc2cccnc12
IC50 (Nonstructural protein 1): 13.5 µM (active) | IC50 (H9c2): 10.9 µM (active)
